This note sets out measurements from EP0700399B1, “36-DERIVATIVES OF RIFAMYCINS AND THEIR USE AS ANTIMICROBIAL AGENTS” (GRUPPO LEPETIT S.P.A., priority 1993, dated 1994).

Read-outs that look alike come from different tables or passages of the source. A value given as a limit tells only on which side of the number the result lay.

For test [1], the system named is Staph. aureus rifa-r^(1). The test can be described thus: MIC by broth microdilution. In kind it is cell-based. Particulars: for MIC: Staphylococcus aureus, read-out: MIC of the compounds. On the technique in general: Broth dilution looks for growth in wells or tubes with falling amounts of substance.
The test system of test [2] is Strept. pneumoniae. The test can be described thus: MIC by broth microdilution. As to conditions: internal code L44; for MIC: Streptococcus pneumoniae, read-out: MIC of the compounds. The test is classed as cell-based.
Test [3] deals with Staph. aureus rifa-r^(2). The test can be described thus: MIC by broth microdilution. In kind it is cell-based. Particulars: for MIC: Staphylococcus aureus, read-out: MIC of the compounds.
Test [4] relates to Staphylococcus aureus. Put plainly: MIC by broth microdilution. Particulars: internal code L165; for MIC: Staphylococcus aureus, read-out: MIC of the compounds. In kind it is cell-based.
For test [5], the system named is Staphylococcus aureus Smith (Int. code L 819). Put plainly: Experimental septicemia in mice. The test is classed as in vivo. As to conditions: treated once immediately after infection, survival on the 7th day; for ED50: Staphylococcus aureus, 168 h. As to the method: Some compounds of the invention were also tested in experimental septicemia in mice infected with Staphylococcus aureus Smith (Int. code L 819). For this purpose, groups of five mice were infected intraperitoneally with about 1 x 10^6 CFU of S. aureus Smith suspended in 0.5 ml of Difco bacteriological mucin. Untreated animals died within 48 hours. The other animals were treated once immediately after infection. On the 7th day the value of ED50 (expressed in mg/kg) was calculated by the method of Spearman-[…]., Statistical method in biological assay, page 254, C. Griffin Ltd., London, 1952), on the basis of the percentage of animals surviving at each dose.

The subject of test [6] is Bacteroides fragilis ATCC 25285. Put plainly: MIC by broth microdilution. The test is classed as cell-based. Particulars: Bacteroides fragilis, ATCC25285; internal code L1011; anaerobic, 48 hours; read-out: MIC of the compounds.
In test [7] the test system is Staph. haemolyticus rifa-r^(2). The test can be described thus: MIC by broth microdilution. The test is classed as cell-based. As to conditions: for MIC: Staphylococcus haemolyticus, read-out: MIC of the compounds.
For test [8], the system named is Staph. aureus Smith. Put plainly: MIC by broth microdilution. The test is classed as cell-based. As to conditions: internal code L819; for MIC: Staphylococcus aureus, read-out: MIC of the compounds.
Test [9] deals with Enterococc. faecalis ATCC 7080. The test can be described thus: MIC by broth microdilution. In kind it is cell-based, Enterococcus faecalis. As to conditions: internal code L149; for MIC: Enterococcus faecalis, ATCC7080, read-out: MIC of the compounds.
The test system of test [10] is Pseudomonas aerug. ATCC10145. Put plainly: MIC by broth microdilution. The test is classed as cell-based, Pseudomonas aeruginosa. Particulars: internal code L4; for MIC: Pseudomonas, ATCC10145, read-out: MIC of the compounds.
Test [11] relates to Neisseria gonorrhoeae. The test can be described thus: MIC by broth microdilution. The test is classed as cell-based. Particulars: internal code L997, 5% carbon dioxide, 48 hours; for MIC: Neisseria gonorrhoeae, read-out: MIC of the compounds.
For test [12], the system named is Propionibact. acnes ATCC 6919. The test can be described thus: MIC by broth microdilution. In kind it is cell-based, Propionibacterium acnes. As to conditions: Cutibacterium acnes, ATCC6919; internal code L1014; anaerobic, 48 hours; read-out: MIC of the compounds.
Test [13] has as its system Streptococcus pyogenes. The test can be described thus: MIC by broth microdilution. The test is classed as cell-based. As to conditions: internal code L49; for MIC: Streptococcus pyogenes, read-out: MIC of the compounds.
Test [14] concerns Escherichia coli. The test can be described thus: MIC by broth microdilution. In kind it is cell-based. As to conditions: internal code L47; for MIC: Escherichia coli, read-out: MIC of the compounds.
Test [15] concerns Staph. epidermidis ATCC 12228. The test can be described thus: MIC by broth microdilution. Particulars: internal code L147; for MIC: Staphylococcus epidermidis, ATCC12228, read-out: MIC of the compounds. The test is classed as cell-based.
Test [16] has as its system Haemoph. influenzae ATCC 19418. Put plainly: MIC by broth microdilution. Particulars: internal code L970, 5% carbon dioxide, 48 hours; for MIC: Haemophilus influenzae, ATCC19418, read-out: MIC of the compounds. The test is classed as cell-based, Haemophilus influenzae.
For test [17], the system named is Proteus vulgaris ATCC 881. Put plainly: MIC by broth microdilution. The test is classed as cell-based. As to conditions: internal code L79; for MIC: Proteus vulgaris, ATCC881, read-out: MIC of the compounds.
In test [18] the test system is Clostridium perfringens. The test can be described thus: microbe, parasite or virus in culture. The test is classed as cell-based. As to conditions: read-out: MIC of the compounds.
Test [19] deals with Klebsiella pneumoniae. The test can be described thus: MIC by broth microdilution. The test is classed as cell-based. As to conditions: internal code L142, read-out: MIC of the compounds.
The test system of test [20] is Esch. coli K12 rifa-r^(1). Put plainly: MIC by broth microdilution. Particulars: Escherichia coli, read-out: MIC of the compounds. The test is classed as cell-based, Escherichia coli.
The test system of test [21] is Esch. coli K12 hyperpermeable. The test can be described thus: MIC by broth microdilution. As to conditions: Escherichia coli, read-out: MIC of the compounds. The test is classed as cell-based, Escherichia coli.
Test [22] has as its system Moraxella catarr. ATCC 8178. Put plainly: MIC by broth microdilution. In kind it is cell-based, Moraxella catharralis. As to conditions: ATCC8178, internal code L76, read-out: MIC of the compounds.
The test system of test [23] is Bacteroides fragilis ATCC 23745. Put plainly: MIC by broth microdilution. In kind it is cell-based. As to conditions: internal code L1010, anaerobic, 48 hours.
[24] abbreviates: intravenous, read-out: ED50 IV route.
Where [25] appears, read: sc, subcutaneous, read-out: ED50 SC route.

Take `CCn1cc(C(=O)OCC(=O)O[C@H]2[C@H](C)[C@H](O)[C@H](C)[C@@H](O)[C@@H](C)/C=C/C=C(/C)C(=O)Nc3c(C=NN4CCN(C5CCCC5)CC4)c(O)c4c5c(c(C)c(O)c4c3O)O[C@](C)(O/C=C/[C@H](OC)[C@H]2C)C5=O)c(=O)c2cc(F)c(N3CCN(C)CC3)cc21` [Compound C26, 3-[[(4-Cyclopentyl-1-piperazinyl)-imino]methyl}-36-{[1-ethyl-6-fluoro-1,4-dihydro-7-(4-methyl-1-piperazinyl)-4-oxo-3-quinolinyl]carbonyloxy}-rifamycin SV]: the MIC in test [1] is 0.13 µg/mL; in [2], 0.03 µg/mL; in test [3], 2 µg/mL; in test [4], 0.06 µg/mL; in [6], 1 µg/mL; in [7], 0.5 µg/mL. For the same compound, the MIC in test [8] worked out at 0.13 µg/mL; in [9] it was 4 µg/mL; in test [10], 32 µg/mL; in test [11], 0.13 µg/mL; in [12] it was 0.13 µg/mL; in test [13], 0.03 µg/mL. Besides, the MIC in test [14] was 2 µg/mL; in test [15], 0.06 µg/mL; in test [16], 1 µg/mL; in [17], 2 µg/mL. Also, the values for the ED50 in test [5] (setting [24]) and in [5] (setting [25]) were 0.95 mg/kg and 1.6 mg/kg, respectively.
In the case of `CO[C@H]1/C=C/O[C@@]2(C)Oc3c(C)c(O)c4c(c3C2=O)C(=O)C(N2CCOCC2)=C(NC(=O)/C(C)=C\C=C\[C@H](C)[C@H](O)[C@@H](C)[C@@H](O)[C@@H](C)[C@H](OC(=O)CO)[C@@H]1C)C4=O` [Compound C15, 36-Hydroxy-3-(4-morpholinyl)rifamycin S], the MIC in test [1] came to 2 µg/mL; in [2], 0.016 µg/mL; in test [3], 4 µg/mL; in test [4] it was 0.002 µg/mL; in test [18] it was 0.001 µg/mL; in test [19] it was 8 µg/mL. For the same compound, the MIC is above 128 µg/mL in test [20]; 0.03 µg/mL in test [6]; 4 µg/mL in test [7]; 0.5 µg/mL in test [9]; at most 0.13 µg/mL in test [21]; 0.002 µg/mL in test [22]. Moreover, the MIC is 16 µg/mL in [10]; 0.03 µg/mL in test [11]; 0.016 µg/mL in test [12]; 0.03 µg/mL in test [13]; 8 µg/mL in test [14]; 0.001 µg/mL in test [15]. Also, the MIC in [16] amounted to 0.06 µg/mL; in test [17] it was 8 µg/mL.
As for `CCn1cc(C(=O)OCC(=O)O[C@H]2[C@H](C)[C@H](O)[C@H](C)[C@@H](O)[C@@H](C)/C=C/C=C(/C)C(=O)NC3=C(N4CCOCC4)C(=O)c4c(c(O)c(C)c5c4C(=O)[C@@](C)(O/C=C/[C@H](OC)[C@H]2C)O5)C3=O)c(=O)c2cc(F)c(N3CCN(C)CC3)cc21` [Compound C24, 36-{[1-Ethyl-6-fluoro-1,4-dihydro-7-(4-methyl-1-piperazinyl)-4-oxo-3-quinolinyl]carbonyloxy}-3-(4-morpholinyl) rifamycin S], the MIC in [23] (Bacteroides fragilis, ATCC23745, read-out: MIC of the compounds) was found to be 0.13 µg/mL; in [1], 0.06 µg/mL; in [2] it was 0.008 µg/mL; in [3] it was 0.13 µg/mL; in [4] it was 0.06 µg/mL; in test [7], 0.13 µg/mL. The MIC is 0.06 µg/mL in test [8]; 0.13 µg/mL in test [9]; 16 µg/mL in [10]; 0.06 µg/mL in [11]; 0.06 µg/mL in test [12]; 0.06 µg/mL in test [13]. For the same compound, the MIC worked out at 16 µg/mL in [14], 0.008 µg/mL in [15], 0.13 µg/mL in test [16] and 16 µg/mL in [17]. Also, the ED50 was 3.8 mg/kg in [5] (setting [24]) and above 50 mg/kg in test [5] (setting [25]).
`CCn1cc(C(=O)OCC(=O)O[C@H]2[C@H](C)[C@H](O)[C@H](C)[C@@H](O)[C@@H](C)/C=C/C=C(/C)C(=O)Nc3c(C=NN4CCN(C)CC4)c(O)c4c5c(c(C)c(O)c4c3O)O[C@](C)(O/C=C/[C@H](OC)[C@H]2C)C5=O)c(=O)cc1N1CCN(C)CC1` [Compound C30, 36-{[1-Ethyl-1,4-dihydro-6-(4-methyl-1-piperazinyl)-4-oxo-3-pyridinyl]carbonyloxy]-3-{[(4-methyl-1-piperazinyl)imino]methyl}rifamycin SV]: the MIC stood at 0.5 µg/mL in [1]; 0.008 µg/mL in test [2]; 1 µg/mL in test [3]; 0.016 µg/mL in test [4]; 0.06 µg/mL in [6]; 4 µg/mL in test [7]. Further, the MIC in test [8] was found to be 0.016 µg/mL; in test [9] it was 0.25 µg/mL; in test [10], 32 µg/mL; in test [11] it was 0.13 µg/mL; in test [12], 0.03 µg/mL; in test [13], 0.016 µg/mL. Moreover, the MIC in [14] came to 16 µg/mL; in [15], 0.016 µg/mL; in [16] it was 1 µg/mL; in test [17] it was 16 µg/mL. The ED50 in test [5] (setting [24]) came out at 0.72 mg/kg; in test [5] (setting [25]) it was 1.6 mg/kg.
For “36-[(1-Ethyl-6-fluoro-1,4-dihydro-7-(4-methyl-1-piperazinyl)-4-oxo-3-quinolinyl)carbonyloxy]-2'-(diethylamino)rifamycin P [Compound C22]”, the “MIC of the compounds” value in [23] came to 0.13 µg/mL; in test [1] (internal code L721, rifampicin resistant strain, moderately resistant), 0.13 µg/mL; in test [2], 0.06 µg/mL; in test [3] (internal code L1282, rifampicin resistant strain, highly resistant), 1 µg/mL; in test [4], 0.06 µg/mL; in test [7] (internal code L602, rifampicin resistant strain, highly resistant), 0.5 µg/mL. Besides, the “MIC of the compounds” value in test [8] is 0.06 µg/mL; in test [9], 2 µg/mL; in test [10], 32 µg/mL; in [11] it was 0.25 µg/mL; in test [13], 0.06 µg/mL; in [14], at least 128 µg/mL. Besides, the results for the “MIC of the compounds” value in [15], in test [16] and in test [17] were 0.06 µg/mL, 0.5 µg/mL and 64 µg/mL, respectively. In addition, in [5] (intravenous), the “ED50 IV route” value is 0.7 mg/kg. In addition, the “ED50 SC route” value in test [5] (subcutaneous) was determined as 5.3 mg/kg.

As a reminder, the ED50 is the dose that gives a 50% effect, or the effect in half of the subjects.
